Experiments:
CymD [1] = target: T1, CymD (Salinispora arenicola, UniProt A8M6W6); assay: prenyl donor in coupled pyrophosphate-release assay with purified CymD; format: biochemical
CymD [2] = target: T1, CymD; assay: ITC; format: binding

T1 sequence (A8M6W6 2-373): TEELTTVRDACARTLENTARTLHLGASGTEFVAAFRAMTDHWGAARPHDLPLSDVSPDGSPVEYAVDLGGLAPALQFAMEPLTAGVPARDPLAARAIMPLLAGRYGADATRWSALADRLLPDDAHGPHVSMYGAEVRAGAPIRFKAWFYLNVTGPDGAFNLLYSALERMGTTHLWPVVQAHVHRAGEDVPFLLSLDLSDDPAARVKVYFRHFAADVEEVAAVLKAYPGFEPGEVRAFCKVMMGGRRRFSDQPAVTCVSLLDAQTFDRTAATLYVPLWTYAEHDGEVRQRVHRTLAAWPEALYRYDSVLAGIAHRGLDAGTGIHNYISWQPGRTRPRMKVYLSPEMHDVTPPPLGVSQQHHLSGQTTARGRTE

Kd (CymD [2]) [µM]	Structure (SMILES)	prenyl donor in coupled pyrophosphate-release assay with purified CymD (CymD [1])
	CC(C)=CCOP(=O)(O)OP(=O)(O)O [DMAPP]	Specific activities of CymD with DMAPP and various prenyl acceptor substrates.
4.4 ± 0.4	N[C@@H](Cc1c[nH]c2ccccc12)C(=O)O [L-Trp]	

Source: publication PMC6667281 (Biochemistry, 2019)
